As usually defined, the IC50 is the concentration at which inhibition is half-maximal.

Molecules are shown by their SMILES.

For this experiment, the target named is PRMT5/MEP50 protein complex (Homo sapiens (Human), UniProt O14744). In words: PRMT5 biochemical assay (3H-SAM methylation of H4(1-21) peptide, filter plate scintillation). Conditions: 10 nM PRMT5/MEP50 complex, 200 nM H4(1-21) peptide, 1 uM SAM, 25 minute incubation at room temperature. As to the method: Biochemical Assay Methods
PRMT5/MEP50 protein complex, sequence (O14744 other isoform, or with tags, fused parts or gaps): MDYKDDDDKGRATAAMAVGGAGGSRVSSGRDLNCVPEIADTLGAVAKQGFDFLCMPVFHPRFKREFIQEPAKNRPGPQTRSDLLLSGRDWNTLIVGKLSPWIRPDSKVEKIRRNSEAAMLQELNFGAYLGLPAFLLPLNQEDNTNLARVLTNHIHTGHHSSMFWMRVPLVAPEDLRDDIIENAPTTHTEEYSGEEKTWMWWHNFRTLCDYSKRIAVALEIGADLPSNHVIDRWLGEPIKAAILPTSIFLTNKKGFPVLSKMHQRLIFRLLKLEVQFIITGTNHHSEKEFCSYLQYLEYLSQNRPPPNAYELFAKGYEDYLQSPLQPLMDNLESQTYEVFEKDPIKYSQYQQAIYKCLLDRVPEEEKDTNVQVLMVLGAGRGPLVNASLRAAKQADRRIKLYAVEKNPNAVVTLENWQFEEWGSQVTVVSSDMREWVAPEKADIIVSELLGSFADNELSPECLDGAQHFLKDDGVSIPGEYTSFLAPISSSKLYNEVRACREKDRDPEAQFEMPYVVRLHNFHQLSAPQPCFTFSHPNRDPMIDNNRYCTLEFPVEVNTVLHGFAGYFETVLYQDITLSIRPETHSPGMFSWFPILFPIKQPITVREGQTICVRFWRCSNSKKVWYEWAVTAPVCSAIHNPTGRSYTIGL
PRMT5/MEP50 protein complex, sequence (Q9BQA1 whole entry partner): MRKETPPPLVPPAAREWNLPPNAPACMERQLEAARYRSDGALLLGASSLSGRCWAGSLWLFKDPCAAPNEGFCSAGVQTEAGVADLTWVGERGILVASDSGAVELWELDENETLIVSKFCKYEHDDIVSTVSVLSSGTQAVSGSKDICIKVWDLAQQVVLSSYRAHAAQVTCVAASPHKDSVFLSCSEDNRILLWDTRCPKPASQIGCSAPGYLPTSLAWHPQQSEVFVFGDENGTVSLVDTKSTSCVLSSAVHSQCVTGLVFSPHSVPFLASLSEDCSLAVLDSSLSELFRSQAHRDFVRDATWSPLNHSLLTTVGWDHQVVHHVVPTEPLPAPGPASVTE
Compounds were solubilized in DMSO and serially diluted, using 3-fold dilutions, into 100% DMSO at a concentration 50-fold greater than the desired assay concentration. Following dilution, 1 ul was added to an empty 96-well microtiter plate. PRMT5/MEP50 protein complex was combined with H4(1-21) peptide ([…]) in PRMT5 assay buffer (50 mM Tris pH 8.5, 50 mM NaCl, 5 mM MgCl2, 1 mM EDTA, 1 mM TCEP) and 44 ul was added to the microtiter plate containing compound. S-Adenosyl-L-methionine (SAM) was prepared by combining ^3H labelled SAM with unlabelled SAM in PRMT5 assay buffer such that the final SAM concentration was 10 uM and the specific activity was 0.2 uCi/ul. The reaction was initiated by adding 5 ul of SAM stock to the microtiter plate. The final reaction conditions were 10 nM PRMT5/MEP50 complex, 200 nM peptide and 1 uM SAM. Following a 25 minute incubation at room temperature, the reaction was stopped with the addition of 100 uL of 20% TCA. The 3H-peptide product was captured using a 96-well filter plate (MSIPN4B, Millipore) and washed 5 times with PBS buffer. Scintillation fluid (100 ul) was added to the dried filter plate and counted in a liquid scintillation counter. IC50 values were determined by fitting the data to the standard 4-parameter dose response equation using Pfizer proprietary software.
Results for the biochemical assay of examples are summarized in Table 1, shown as IC50 values in μM.
Take `Cc1ncnc2c1ccn2[C@@H]1C[C@H]([C@@H](O)c2ccc(F)cc2)[C@@H](O)[C@H]1O` [Example 10, (1S,2R,3R,5R)-3-[(R)-(4-fluorophenyl) (hydroxy)methyl]-5-(4-methyl-7H-pyrrolo[2,3-d]pyrimidin-7-yl)cyclopentane-1,2-diol]: the IC50 was found to be 0.941 µM.

In turn, `Cc1ncnc2c1ccn2[C@@H]1C[C@H]([C@@H](O)c2ccc(Cl)cc2)[C@@H](O)[C@H]1O` [Example 12, (1S,2R,3R,5R)-3-[(R)-(4-chlorophenyl) (hydroxy)methyl]-5-(4-methyl-7H-pyrrolo[2,3-d]pyrimidin-7-yl)cyclopentane-1,2-diol] had an IC50 of 0.478 µM.

For the molecule `Cc1ncnc2c1ccn2[C@@H]1C[C@H]([C@@H](O)c2cc(F)c(F)c(F)c2)[C@@H](O)[C@H]1O` [Example 14, (1S,2R,3R,5R)-3-[(R)-hydroxy(3,4,5-trifluorophenyl)methyl]-5-(4-methyl-7H-pyrrolo[2,3-d]pyrimidin-7-yl)cyclopentane-1,2-diol], the IC50 came to 0.719 µM.

Consider `Cc1cccc(CC(O)[C@H]2C[C@@H](n3ccc4c(C)ncnc43)[C@H](O)[C@@H]2O)n1` (stereo partly drawn) [Example 15, (1S,2R,3R,5R)-3-[1-hydroxy-2-(6-methylpyridin-2-yl)ethyl]-5-(4-methyl-7H-pyrrolo[2,3-d]pyrimidin-7-yl)cyclopentane-1,2-diol], for which the IC50 was > 200 µM.

The molecule `Cc1ncnc2c1ccn2[C@@H]1C[C@H](C2(O)CC2)[C@@H](O)[C@H]1O` [Example 17, (1S,2R,3S,5R)-3-(1-hydroxycyclopropyl)-5-(4-methyl-7H-pyrrolo[2,3-d]pyrimidin-7-yl)cyclopentane-1,2-diol] showed an IC50 of 2.77 µM.

Take `Cc1ncnc2c1ccn2[C@@H]1C[C@H](C(C)(C)O)[C@@H](O)[C@H]1O` [Example 18, (1S,2R,3S,5R)-3-(2-hydroxypropan-2-yl)-5-(4-methyl-7H-pyrrolo[2,3-d]pyrimidin-7-yl)cyclopentane-1,2-diol]: the IC50 stood at 3.7 µM.

The molecule `Cc1ncnc2c1ccn2[C@@H]1C[C@H]([C@@](C)(O)c2ccc(F)cc2)[C@@H](O)[C@H]1O` [Example 20, (1S,2R,3S,5R)-3-[(1R)-1-(4-fluorophenyl)-1-hydroxyethyl]-5-(4-methyl-7H-pyrrolo[2,3-d]pyrimidin-7-yl)cyclopentane-1,2-diol] had an IC50 of 17.1 µM.

In turn, `Nc1ncnc2c1ccn2[C@@H]1C[C@H]([C@H](O)c2ccc(Cl)c(F)c2)[C@@H](O)[C@H]1O` [Example 23, (1R,2S,3R,5R)-3-(4-amino-7H-pyrrolo[2,3-d]pyrimidin-7-yl)-5-((S)-(4-chloro-3-fluorophenyl)(hydroxy)methyl)cyclopentane-1,2-diol] returned an IC50 of 0.572 µM.

`Nc1ncnc2c1ccn2[C@@H]1C[C@H]([C@@H](O)c2ccc(Cl)c(F)c2)[C@@H](O)[C@H]1O` [Example 24, (1R,2S,3R,5R)-3-(4-amino-7H-pyrrolo[2,3-d]pyrimidin-7-yl)-5-((R)-(4-chloro-3-fluorophenyl)(hydroxy)methyl)cyclopentane-1,2-diol] showed an IC50 of 0.071 µM.

On to `Nc1ncnc2c1c(F)cn2[C@@H]1C[C@H]([C@@H](O)c2ccc(F)cc2)[C@@H](O)[C@H]1O` [Example 26, (1R,2S,3R,5R)-3-(4-amino-5-fluoro-7H-pyrrolo[2,3-d]pyrimidin-7-yl)-5-[(R)-(4-fluorophenyl)(hydroxy)methyl]cyclopentane-1,2-diol], for which half-maximal inhibition (IC50) was put at 0.704 µM.

As to `O[C@@H]1[C@H](O)[C@@H]([C@H](O)c2ccc(F)c(F)c2)C[C@H]1Nc1ncnc2[nH]ccc12` [Example 27, (1S,2R,3R,5R)-3-[(S)-(3,4-difluorophenyl)(hydroxy)methyl]-5-(7H-pyrrolo[2,3-d]pyrimidin-4-ylamino)cyclopentane-1,2-diol], the IC50 is 0.449 µM.

Consider `O[C@@H]1[C@H](O)[C@@H]([C@@H](O)c2ccc(F)c(F)c2)C[C@H]1Nc1ncnc2[nH]ccc12` [Example 28, (1S,2R,3R,5R)-3-[(R)-(3,4-difluorophenyl)(hydroxy)methyl]-5-(7H-pyrrolo[2,3-d]pyrimidin-4-ylamino)cyclopentane-1,2-diol], for which half-maximal inhibition (IC50) required 5.77 µM.

`CN(c1ccncn1)[C@@H]1C[C@H]([C@H](O)c2ccc(F)c(F)c2)[C@@H](O)[C@H]1O` [Example 31, (1S,2R,3R,5R)-3-[(S)-(3,4-difluorophenyl)(hydroxy)methyl]-5-[methyl(pyrimidin-4-yl)amino]cyclopentane-1,2-diol] registered an IC50 of 0.466 µM.

Take `Cc1cc(N(C)[C@@H]2C[C@H]([C@H](O)c3ccc(F)c(F)c3)[C@@H](O)[C@H]2O)ncn1` [Example 33, (1S,2R,3R,5R)-3-[(S)-(3,4-difluorophenyl)(hydroxy)methyl]-5-[methyl(6-methylpyrimidin-4-yl)amino] cyclopentane-1,2-diol]: the IC50 was 3.58 µM.

Consider `Cc1cc(N(C)[C@@H]2C[C@H]([C@@H](O)c3ccc(F)c(F)c3)[C@@H](O)[C@H]2O)ncn1` [Example 34, (1S,2R,3R,5R)-3-[(R)-(3,4-difluorophenyl)(hydroxy)methyl]-5-[methyl(6-methylpyrimidin-4-yl)amino] cyclopentane-1,2-diol], for which inhibition was half-maximal at 59.5 µM (IC50).

The molecule `Cc1nccc(N(C)[C@@H]2C[C@H]([C@H](O)c3ccc(F)c(F)c3)[C@@H](O)[C@H]2O)n1` [Example 35, (1S,2R,3R,5R)-3-[(S)-(3,4-difluorophenyl)(hydroxy)methyl]-5-[methyl(2-methylpyrimidin-4-yl)amino] cyclopentane-1,2-diol] yielded an IC50 of 0.15 µM.

Molecule `Cc1nccc(N(C)[C@@H]2C[C@H]([C@@H](O)c3ccc(F)c(F)c3)[C@@H](O)[C@H]2O)n1` [Example 36, (1S,2R,3R,5R)-3-[(R)-(3,4-difluorophenyl)(hydroxy)methyl]-5-[methyl(2-methylpyrimidin-4-yl)amino] cyclopentane-1,2-diol] displayed an IC50 of 2.7 µM.

Take `CN(c1ncnc(N)n1)[C@@H]1C[C@H]([C@H](O)c2ccc(F)c(F)c2)[C@@H](O)[C@H]1O` [Example 37, (1R,2S,3R,5R)-3-[(4-amino-1,3,5-triazin-2-yl)(methyl)amino]-5-[(S)-(3,4-difluorophenyl) (hydroxy)methyl]cyclopentane-1,2-diol]: the IC50 was 0.266 µM.

As to `CN(c1ncnc(N)n1)[C@@H]1C[C@H]([C@@H](O)c2ccc(F)c(F)c2)[C@@H](O)[C@H]1O` [Example 38, (1R,2S,3R,5R)-3-[(4-amino-1,3,5-triazin-2-yl)(methyl)amino]-5-[(R)-(3,4-difluorophenyl)(hydroxy)methyl]cyclopentane-1,2-diol], half-maximal inhibition (IC50) was put at 15.7 µM.

Turning to `CN(c1ccnc(N)n1)[C@@H]1C[C@H]([C@H](O)c2ccc(F)c(F)c2)[C@@H](O)[C@H]1O` [Example 39, (1R,2S,3R,5R)-3-[(2-aminopyrimidin-4-yl)(methyl)amino]-5-[(S)-(3,4-difluorophenyl)(hydroxy)methyl] cyclopentane-1,2-diol], the IC50 is 0.114 µM.

Regarding `CN(c1ccnc(N)n1)[C@@H]1C[C@H]([C@@H](O)c2ccc(F)c(F)c2)[C@@H](O)[C@H]1O` [Example 40, (1R,2S,3R,5R)-3-[(2-aminopyrimidin-4-yl)(methyl)amino]-5-[(R)-(3,4 difluorophenyl)(hydroxy)methyl] cyclopentane-1,2-diol], the IC50 came out at 2.04 µM.

The molecule `Cc1nc(N)nc(N(C)[C@@H]2C[C@H]([C@H](O)c3ccc(F)c(F)c3)[C@@H](O)[C@H]2O)n1` [Example 41, (1R,2S,3R,5R)-3-[(4-amino-6-methyl-1,3,5-triazin-2-yl)(methyl)amino]-5-[(S)-(3,4-difluorophenyl) (hydroxy)methyl]cyclopentane-1,2-diol] had an IC50 of 0.046 µM.

Regarding `Cc1nc(N)nc(N(C)[C@@H]2C[C@H]([C@@H](O)c3ccc(F)c(F)c3)[C@@H](O)[C@H]2O)n1` [Example 42, (1R,2S,3R,5R)-3-[(4-amino-6-methyl-1,3,5-triazin-2-yl)(methyl)amino]-5-[(R)-(3,4-difluorophenyl) (hydroxy)methyl]cyclopentane-1,2-diol], the IC50 was 1.39 µM.

`CN(c1cc(N)ncn1)[C@@H]1C[C@H]([C@H](O)c2ccc(F)c(F)c2)[C@@H](O)[C@H]1O` [Example 43, (1R,2S,3R,5R)-3-[(6-aminopyrimidin-4-yl)(methyl)amino]-5-[(S)-(3,4-difluorophenyl) (hydroxy)methyl]cyclopentane-1,2-diol] came in with an IC50 of 0.879 µM.

Regarding `CN(c1cc(N)ncn1)[C@@H]1C[C@H]([C@@H](O)c2ccc(F)c(F)c2)[C@@H](O)[C@H]1O` [Example 44, (1R,2S,3R,5R)-3-[(6-aminopyrimidin-4-yl)(methyl)amino]-5-[(R)-(3,4-difluorophenyl)(hydroxy)methyl]cyclopentane-1,2-diol], the IC50 was found to be 17 µM.

Consider `Cc1ncnc(N(C)[C@@H]2C[C@H]([C@H](O)c3ccc(F)c(F)c3)[C@@H](O)[C@H]2O)n1` [Example 46, (1S,2R,3R,5R)-3-[(S)-(3,4-difluorophenyl)(hydroxy)methyl]-5-[methyl(4-methyl-1,3,5-triazin-2-yl)amino]cyclopentane-1,2-diol], for which half-maximal inhibition (IC50) was put at 0.297 µM.

(Values after patent US10709709B2, “Substituted carbonucleoside derivatives useful as anticancer agents” (Pfizer Inc., priority 2016, dated 2020).)
